# Counter-ions that a name gives are not always drawn.
# Columns and labels:
# [1] = test system: AGEs in wild type AB zebrafish; experiment: Anti-glycation activity on zebrafish (AGEs increase model, 0.4 M glucose); type: in vivo; conditions: 200 μg/mL, 5 dpf zebrafish, 24 h
# Experimental: Zebrafish were all fed in fish culture water at 28° C. (water quality: 200 mg instant sea salt was added to 1 L reverse osmosis water, the conductivity was 450-550 μS/cm; PH 6.5~8.5; Hardness of 50-100 mg/L CaCO3), provided by a fish breeding center, experimental animal use license number: SYXK (Zhejiang) 2012-0171, feeding management in line with the international AAALAC certification (certification number: 001458) requirements. Wild type AB zebrafish are bred naturally in pairs. Zebrafish aged 5 days after fertilization (DPF) were used to evaluate the anti-aging efficacy of samples.
# Five DPF wild type AB zebrafish were randomly selected and placed in 1.5 mL centrifuge tubes, with 10 zebrafish in each tube (experimental group). The extracts of Dendrobium officinale flower were given in aqueous solution with positive control aminoguanidine hydrochloride (AG) concentration of 200 μg/mL, and normal control group and model control group were set at the same time. The volume of each tube was 150 μL. […] After 24 h treatment on a 60° C. shaker, the supernatant was centrifuged and the data were collected using a multifunctional microplate reader, the fluorescent values of AGEs in each experimental group were analyzed, and the results of statistical analysis of this indicator were used to evaluate the anti-aging efficacy of samples.
# [2] = test system: fluorescent AGEs (BSA-fructose/glucose system); experiment: Fluorescent AGEs formation in a BSA-fructose/glucose system; type: biochemical, bovine
# Experimental: The formation of total fluorescent AGEs in glycated samples was assessed by determining their fluorescent intensities at an excitation/emission wavelength of 350/450 nm, as previously described. Glycated protein was prepared in vitro by incubating BSA in the presence of D-glucose (GLC) and D-fructose (FRC). The DOF extract and specific standards were dissolved in DMSO:water (1:4). BSA (4 mg/ml, 100 μl) was preliminary mixed with 50 μl of GLC (0.5 M) and 50 μl of FRC (0.5 M) in 20 mM sodium phosphate buffer (pH 7.4), and then 100 μl samples were added in the 96-well plate and incubated at 37.5° C. for 7 days. All solutions were prepared under sterile conditions and filtered using a 0.22-μm syringe before incubation. The assay was performed in triplicate, and AG was used as a positive control.
# [3] = test system: CML expression in human dermal fibroblasts (HDFs); experiment: Anti-glycation activity on HDFs (CML immunofluorescence, glyoxal/MGO-induced); type: cell-based
# Experimental: HDFs cells were digested from T75 flasks and seeded to 12 well culture plate on slides at 50,000 cells per well. After 48 h the cells were treated by 0.5 mM glyoxal for 48 h. Then the cells were treated with or without positive controls or active samples for an additional 48 h. At the end of the experiment, cell slides were washed once by phosphate-buffered saline (PBS) and fixed in polyformaldehyde overnight at 4° C. For […] (CML) biomarker staining, the slides were blocked in 1% bovine serum albumin (BSA) for 1 h then applied with primary CML antibody (1:50) overnight at 4° C. The next day secondary antibody (1:1000) was applied for 2 h at room temperature. […] Image J was used to quantified CML expression from different visions randomly picked by each group. Data is presented as the mean±SD, and analyzed with Student's t-test or one-way ANOVA. * P<0.05, ** P<0.01, *** P<0.001. […]
# HDFs were cultured in high-glucose DMEM supplemented with 10% FBS containing 100 µg/ml of PS at 37° C. in a humidified 5% CO2 incubator. Cell viability was assessed using the CCK-8 kit. […] Counterstaining was performed by adopting anti-fluorescence quenching and sealing liquid containing DAPI, followed by visualisation and fluorescence image capture using a microscope (Leica, Germany). ImageJ software was used to quantify CML expression from different images randomly selected in each group.
smiles,measurement,setting,value
N=C(N)NN [Aminoguanidine hydrochloride],AGEs fluorescence value (mean ± SE),[1],35106 ± 770
same,"IC50, fluorescent AGEs","[2]; BSA-fructose/glucose, 37.5° C., 7 days, text b277",177.3 ± 11.6 µg/mL
same,IC50,"[2]; read-out: IC50, AGE formation",1600 µM
same,"Anti-glycation effect, CML expression, AVE","[3]; 0.1 mM, 48 h after 0.5 mM glyoxal, Glyoxal = 100.00",11.89
same,inhibition of glycation,"[3]; positive compound AG, MGO-induced HDFs, CML IF",88.11%

# Reference: US20260232750A1, “COMPOSITION AND METHOD FOR INHIBITING ADVANCED GLYCATION END PRODUCTS” (ACCESS BUSINESS GROUP INTERNATIONAL LLC, priority 2022, published 2026)
